In data set [1] the target is T1, human M1 muscarinic receptors (Homo sapiens, UniProt P11229).
T1 sequence (P11229 1-460): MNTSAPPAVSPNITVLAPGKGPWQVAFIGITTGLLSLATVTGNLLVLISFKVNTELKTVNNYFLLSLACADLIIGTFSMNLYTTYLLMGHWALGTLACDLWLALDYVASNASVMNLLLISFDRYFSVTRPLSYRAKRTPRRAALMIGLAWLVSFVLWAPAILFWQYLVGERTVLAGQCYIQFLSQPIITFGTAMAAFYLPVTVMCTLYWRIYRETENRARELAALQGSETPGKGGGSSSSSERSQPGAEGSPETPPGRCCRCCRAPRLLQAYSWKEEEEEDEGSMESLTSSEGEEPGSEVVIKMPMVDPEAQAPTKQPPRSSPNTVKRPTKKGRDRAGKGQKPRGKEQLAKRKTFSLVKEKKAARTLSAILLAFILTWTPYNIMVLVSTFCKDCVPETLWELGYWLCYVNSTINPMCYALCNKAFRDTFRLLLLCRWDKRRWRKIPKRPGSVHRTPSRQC
Kind of data set: [3H]AA release ACh dose-response families fitted to an allosteric operational model. The settings on record: for Operational efficacy-B, τB: best-fit ± s.e.m.; for Operational efficacy-B, τB / Affinity-B, logKB: Em set to 2.0; for Affinity-B, logKB: given as logKB (negative log value), allosteric site.
Procedure: Stably transfected CHO-hM1 cells were seeded on 24-well plates (Greiner Bio-One GmbH, Frickenhausen, Germany) at a density of 5.0 × 10^4 cells/well in 0.5 ml of F-12 medium. Cells were incubated until they attached (approximately 3 h), followed by the addition of [^3H]AA to a final concentration of 0.05 μCi of [^3H]AA per well. The cells were then grown for 16 to 20 h before the assay was performed. [^3H]AA release was measured in Eagle’s basal medium with 20 mM HEPES and 2 mg/ml fatty acid-free bovine serum albumin (EM-BSA). Cells were rinsed twice with EM-BSA, followed by the addition of EM-BSA media containing experimental agents and incubated for 1 h at 37 °C. The assay was terminated by aspiration of the media, and the amount of [^3H]AA released was determined by liquid scintillation counting (Beckman-Coulter LS6500).
Tabulated [^3H]AA release data are represented as a fraction of maximal release elicited by ACh or as the fraction of release elicited by the relevant concentration of ACh alone, as indicated. Dose-response curves were normalized to the maximal response of ACh without allosteric ligand. Where indicated, response curves were analyzed using the empirical four-parameter equation: Y=Top+Bottom-Top/1+X/C50^n where X is the concentration of the ligand used, Y is the amount of response, C50 is the concentration of the ligand that produces 50% of the maximal effect, Top and Bottom are the top and bottom plateaus of the curve, and n is related to the Hill slope for the curve. Where indicated, families of response curves were analyzed according to an allosteric operational model[50],[51]: Y=EM[τAA(KB+αβB)+τBBKA]/[τAA(KB+αβB)+τBBKA+AKB+KAKB+KAB+αAB] where EM is the maximal response; A is the concentration of ACh; B is the concentration of the allosteric ligand; τA and τB represent the operational efficacies of A and B, respectively; KA and KB are the equilibrium dissociation constants of A and B; and α and β represent the cooperativities between A and B in terms of binding and activation, respectively. Curve-fitting was carried out with GraphPad Prism, version 5.0 or 6.0 (San Diego CA).

Data set [2] has as its target T1, human M1 muscarinic receptors. Kind of data set: [3H]-arachidonic acid release in CHO cells expressing M1 receptors, with and without ACh (single modulator concentration, four-parameter curves). It counts as cell-based. Also noted: expressed in transfected cells; host or cells: CHO cells stably transfected with hM1, obtained from Mark Brann's laboratory (NIH). The settings on record: for 0.1 µM ACh: response with modulator present divided by response to ACh alone / 100 µM ACh: response with modulator present divided by response to ACh alone / No ACh: agonist effect of the allosteric ligand by itself, fraction of the maximal response that could be elicited by ACh: modulator 10 µM, CHO-hM1, mean ± s.e.m.; for No ACh: agonist effect of the allosteric ligand by itself, fraction of the maximal response that could be elicited by ACh: at least 4 determinations; for Effect on M1 receptor activity and ACh response, in words: modulators at 10 µM (amiodarone 30 µM).

Data set [3] deals with wild-type (AB) zebrafish (Danio rerio). Kind of data set: animal or person. It counts as in vivo. The settings on record: for Effect on locomotor activity and turning behaviors, in words: 30 min spontaneous swimming period; for Concentration with significant effects on locomotor behaviors: AB zebrafish; for Distance moved / Variance turn angle: compound at 10 µM relative to controls, mean ± s.e.m., N = 12; for MEC: locomotor behaviors.

For data set [4] the test system is unchanged. The format is in vivo. The settings on record: compound at 10 µM relative to controls; mean ± s.e.m., N = 12.
Data set [5] has the same test system. Briefly: Maximum tolerated concentration (MTC) determination in larval zebrafish. The format is in vivo. The settings on record: for MTC (maximum tolerated concentration): after 24 h exposure, 5 dpf larvae; for Concentration up to which no signs of toxicity were produced: highest concentration tested.

“Also recorded” adds a separate entry of the source. Marks after values point to notes of the source that are not given here.

`COc1c(I)cc(CN2C(=O)C(=O)c3ccccc32)cc1I` [Compound 8a, 1-(3,5-diiodo-4-methoxybenzyl)indoline-2,3-dione]: in data set [1], the “Operational efficacy-B, τB” value is given as 0.17 ± 0.03 and the “Affinity-B, logKB” value was −6.26 ± 0.15. In addition, in data set [2], the “0.1 µM ACh: response with modulator present divided by response to ACh alone” value worked out at 2.44 ± 0.21; the “100 µM ACh: response with modulator present divided by response to ACh alone” value turned out to be 1.62 ± 0.06; the “No ACh: agonist effect of the allosteric ligand by itself, fraction of the maximal response that could be elicited by ACh” value came out at 0.24 ± 0.04; the “Effect on M1 receptor activity and ACh response, in words” value is recorded as “significant enhancement of ACh activity; also recorded: dramatically enhanced ACh efficacy”. In data set [3], the Therap. index is on record as over 100; the “Effect on locomotor activity and turning behaviors, in words” value is given as “reduced locomotor activity”; the “Concentration with significant effects on locomotor behaviors” value is 1 µM; the Distance moved is listed as 45.8 ± 6.4*** %. Further, in data set [3], the Variance turn angle is reported as 161.1 ± 13.4*** % and the MEC came out at 0.3 µM. Also, the Angular velocity in data set [4] turned out to be 197.1 ± 19.8 %. Further, in data set [5], the “MTC (maximum tolerated concentration)” value is reported as over 30 µM and the “Concentration up to which no signs of toxicity were produced” value is at least 30 µM.

On to `COc1c(Br)cc(CN2C(=O)C(=O)c3ccccc32)cc1Br` [Compound 8c, 1-(3,5-dibromo-4-methoxybenzyl)indoline-2,3-dione], for which, in data set [1], the “Operational efficacy-B, τB” value is reported as 0.33 ± 0.06 and the “Affinity-B, logKB” value was −5.53 ± 0.15. Besides, the Kb in data set [1] (read-out: KB, affinity for M1 muscarinic receptors, allosteric operational model) came to 3000 nM. Moreover, in data set [2], the “0.1 µM ACh: response with modulator present divided by response to ACh alone” value is on record as 2.62 ± 0.19; the “100 µM ACh: response with modulator present divided by response to ACh alone” value is 1.42 ± 0.09; the “No ACh: agonist effect of the allosteric ligand by itself, fraction of the maximal response that could be elicited by ACh” value is 0.19 ± 0.03; the “Effect on M1 receptor activity and ACh response, in words” value was “dramatically enhanced ACh efficacy”. For the same compound, in data set [3], the “Concentration with significant effects on locomotor behaviors” value turned out to be 1 µM, the Distance moved is given as 26.9 ± 3.7*** %, the Variance turn angle is listed as 150.8 ± 12.0*** % and the MEC worked out at 0.1 µM. In data set [4], this compound came in with an Angular velocity of 201.6 ± 20.2 %. For the same compound, in data set [5], the “MTC (maximum tolerated concentration)” value is listed as over 30 µM and the “Concentration up to which no signs of toxicity were produced” value is at least 30 µM.

With `CCN(CC)CCOc1ccc(CN2C(=O)C(=O)c3ccccc32)cc1` [Compound 7, 1-(4-(2-(diethylamino)ethoxy)benzyl)indoline-2,3-dione], the “Affinity-B, logKB” value in data set [1] is recorded as −6.20 ± 0.33. In addition, in data set [2], the “0.1 µM ACh: response with modulator present divided by response to ACh alone” value is 0.06 ± 0.01; the “100 µM ACh: response with modulator present divided by response to ACh alone” value was found to be 1.11 ± 0.06; the “No ACh: agonist effect of the allosteric ligand by itself, fraction of the maximal response that could be elicited by ACh” value came to 0.02 ± 0.01; the “Effect on M1 receptor activity and ACh response, in words” value is “primarily decreased potency and slightly enhanced the efficacy of ACh; also recorded: lacked intrinsic activity; also recorded: decreased ACh potency with little impact on ACh efficacy”. In addition, in data set [3], the “Effect on locomotor activity and turning behaviors, in words” value is recorded as “not effective in reducing locomotor activity or elevating angular velocity or variance of turn angle”; the Distance moved stood at 72.5 ± 11.8%; the Variance turn angle worked out at 93.9 ± 10.6%; the MEC is reported as over 10 µM. In data set [4], this compound showed an Angular velocity of 122.4 ± 6.9%. Moreover, the “MTC (maximum tolerated concentration)” value in data set [5] came to 10 µM.

On to `CCCCc1oc2ccccc2c1C(=O)c1cc(I)c(OC)c(I)c1` [Compound 6b, (2-butylbenzofuran-3-yl)(3,5-diiodo-4-methoxyphenyl)methanone], for which, in data set [2], the “0.1 µM ACh: response with modulator present divided by response to ACh alone” value was 1.78 ± 0.12; the “100 µM ACh: response with modulator present divided by response to ACh alone” value stood at 1.36 ± 0.07; the “No ACh: agonist effect of the allosteric ligand by itself, fraction of the maximal response that could be elicited by ACh” value is on record as 0.08 ± 0.02; the “Effect on M1 receptor activity and ACh response, in words” value was “increased ACh activity”. Further, in data set [3], the Distance moved is 75.3 ± 8.5* %, the Variance turn angle is 133.7 ± 14.0* % and the MEC is listed as over 30 µM. This compound had an Angular velocity in data set [4] of 132.3 ± 16.9%. Besides, the “MTC (maximum tolerated concentration)” value in data set [5] is 30 µM.
